Experimental data from BindingDB's records for doi:10.1016/j.bmcl.2004.07.091 (Keio University, 2004).

These compounds were tested against beta-glucosidase (Rattus norvegicus) (assay: Inhibition of Beta-glucosidase of rat intestine; no inhibition).

| IC50 | Structure (SMILES) |
| --- | --- |
| > 1 mM | CCCCCCCCNC1CC(CO)C(O)C(O)C1O (stereo unspecified) [4-Hydroxymethyl-6-octylamino-cyclohexane-1,2,3-triol] |
| > 1 mM | C=C1CC(NCCCCCCCC)C(O)C(O)C1O (stereo unspecified) [4-Methylene-6-octylamino-cyclohexane-1,2,3-triol] |
| > 1 mM | CO[C@@H]1CC2COC(C1O)[C@H]2NC1CC(CO)C(O)C(O)C1O (stereo partly drawn) [4-((3R,8S)-4-Hydroxy-3-methoxy-6-oxa-bicyclo[3.2.1]oct-8-ylamino)-6-hydroxymethyl-cyclohexane-1,2,3-triol] |

These compounds were tested against T1, Beta-galactosidase (Bos taurus, UniProt Q58D55) (assay: Inhibition of Beta-galactosidase of bovine liver; no inhibition).
T1 sequence (Q58D55 whole entry): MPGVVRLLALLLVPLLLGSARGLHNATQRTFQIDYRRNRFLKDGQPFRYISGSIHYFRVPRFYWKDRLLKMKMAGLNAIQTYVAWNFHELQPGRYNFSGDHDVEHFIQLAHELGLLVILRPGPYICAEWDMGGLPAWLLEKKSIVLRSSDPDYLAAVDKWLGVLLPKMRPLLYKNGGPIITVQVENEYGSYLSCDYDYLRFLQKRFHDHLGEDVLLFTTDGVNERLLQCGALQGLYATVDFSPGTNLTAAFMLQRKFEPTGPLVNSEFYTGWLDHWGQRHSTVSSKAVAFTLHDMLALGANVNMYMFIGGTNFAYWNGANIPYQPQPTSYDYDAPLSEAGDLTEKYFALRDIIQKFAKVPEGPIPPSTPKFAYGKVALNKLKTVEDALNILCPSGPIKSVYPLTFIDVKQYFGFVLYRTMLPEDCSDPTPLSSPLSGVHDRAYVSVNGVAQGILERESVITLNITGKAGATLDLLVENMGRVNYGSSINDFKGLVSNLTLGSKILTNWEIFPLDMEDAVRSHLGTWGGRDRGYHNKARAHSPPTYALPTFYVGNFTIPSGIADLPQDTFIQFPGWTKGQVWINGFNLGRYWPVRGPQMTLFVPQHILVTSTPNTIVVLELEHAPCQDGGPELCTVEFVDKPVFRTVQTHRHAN

| IC50 | Structure (SMILES) |
| --- | --- |
| > 1 mM | CC(=O)NC1CC(CO)C(O)C(O)C1O (stereo unspecified) [N-(2,3,4-Trihydroxy-5-hydroxymethyl-cyclohexyl)-acetamide] |
| > 1 mM | CO[C@@H]1CC2COC(C1O)[C@H]2NC1CC(CO)C(O)C(O)C1O (stereo partly drawn) [4-((3R,8S)-4-Hydroxy-3-methoxy-6-oxa-bicyclo[3.2.1]oct-8-ylamino)-6-hydroxymethyl-cyclohexane-1,2,3-triol] |
| > 1 mM | N[C@H]1C[C@H](CO)[C@@H](O)[C@H](O)[C@H]1O |
